Reference: patent publication US20260306453A1, “FORMULATIONS CONTAINING TRYPTAMINE DERIVATIVES AND USES THEREOF” (priority 2023, published 2026)
Read-outs that look alike come from different tables or passages of the source.

Key:
[1] = assay type: in vivo; details: rat; oral or IV administration; within minutes
Description: The rat PK (FIG. 6) was assessed with an oral dose of 10 mg/kg and intravenously at 1 mg/kg. […] The PK and brain concentrations were assessed in cohorts of 3 […] for each dosing group and between the plasma vs brain concentrations. For 10 mg/kg oral dosing, the PK parameters are outlined in Table 16 below.
1 mg/kg IV dosing, the PK parameters are outlined in Table 17.

5-HT6 [2] = biological target: T1, 5-HT6 (Homo sapiens, UniProt P50406); assay: Radioligand binding in vitro assay, 5-HT6
5-HT7A [3] = biological target: T2, 5-HT7A (Homo sapiens, UniProt P34969); assay: Radioligand binding in vitro assay, 5-HT7A
[4] = Rat pharmacodynamics (hypothermia) of intranasal DMT; details: in vivo
5-HT1D = 5-HT1D (Homo sapiens, UniProt P28221); assay: Radioligand binding in vitro assay, 5-HT1D
Sigma 1 = Sigma 1 (Homo sapiens, UniProt Q99720); assay: Radioligand binding in vitro assay, Sigma 1
5-HT5A = 5-HT5A (Homo sapiens, UniProt P47898); assay: Radioligand binding in vitro assay, 5-HT5A
in vivo = details: rat, 3 mg/kg
[5] = rat, in vivo
5-HT1B = 5-HT1B (Homo sapiens, UniProt P28222); assay: Radioligand binding in vitro assay, 5-HT1B
Sigma 2 = Sigma 2 (Homo sapiens, UniProt Q5BJF2); assay: Radioligand binding in vitro assay, Sigma 2
5-HT1E = 5-HT1E (Homo sapiens, UniProt P28566); assay: Radioligand binding in vitro assay, 5-HT1E
5-HT1A = 5-HT1A (Homo sapiens, UniProt P08908); assay: Radioligand binding in vitro assay, 5-HT1A
5-HT2A [6] = biological target: T3, 5-HT2A (Homo sapiens, UniProt P28223); assay: biochemical; details: radioligand binding
5-HT2B [7] = biological target: T4, 5-HT2B (Homo sapiens, UniProt P41595); assay: Radioligand binding in vitro assay, 5-HT2B
5-HT2C [8] = biological target: T5, 5-HT2C (Homo sapiens, UniProt P28335); assay: biochemical; details: radioligand binding
5-HT2A [9] = biological target: T3, 5-HT2A; assay: In vitro functional activity, 5-HT2A; assay type: biochemical; details: agonism
5-HT2B [10] = biological target: T4, 5-HT2B; assay: In vitro functional activity, 5-HT2B; assay type: biochemical; details: agonism
Excerpt: (§1) The functional activity considers agonism vs. antagonism. […] Each of these receptors affects mental health, learning, memory, and more specifically, 5-HT6 is responsible for precognitive effects and neuronal connections, growth, and migration.

5-HT7A [11] = biological target: T2, 5-HT7A; assay: In vitro functional activity, 5-HT7A; assay type: biochemical; details: agonism; inverse agonism at 5-HT7A
Excerpt: as §1

5-HT6 [12] = biological target: T1, 5-HT6; assay: In vitro functional activity, 5-HT6; assay type: biochemical; details: agonism
Excerpt: as §1

5-HT2C [13] = biological target: T5, 5-HT2C; assay: biochemical; details: agonism
mice [14] = assay: In vivo mouse head-twitch response
mice [15] = assay: 2-day Porsolt Forced-Swim Test; assay type: in vivo; details: Mus musculus, ip, both days, read-out: Porsolt Forced Swim (Both Days), minimum effective dose
Excerpt: The 2-day Porsolt Forced-Swim Test is a preclinical assay that tests for antidepressant effects in mice. […] Day 2 behavior is more likely to assess learning and memory with shorter swim times indicative of learning to be rescued.

mice [16] = assay: Elevated plus maze
mice [17] = assay: Fear extinction and conditioning; assay type: in vivo, mouse
Excerpt: The fear extinction and conditioning model is a preclinical assay that performs a stimulus and tests response time and recognition of the stimulus. This translational model can correlate to anxiety, PTSD, memory, and precognitive effects to the positive control (4-AcO-DMT).

[18] = radioligand binding, read-out: Ki 5-HT1D
[19] = radioligand binding, read-out: Ki 5-HT1B
[20] = radioligand binding, read-out: Ki 5-HT1E
[21] = radioligand binding, read-out: Ki Sigma 1
[22] = radioligand binding, read-out: Ki 5-HT5A
[23] = radioligand binding, read-out: Ki Sigma 2

Chain of Sigma 2 (Q5BJF2 whole entry): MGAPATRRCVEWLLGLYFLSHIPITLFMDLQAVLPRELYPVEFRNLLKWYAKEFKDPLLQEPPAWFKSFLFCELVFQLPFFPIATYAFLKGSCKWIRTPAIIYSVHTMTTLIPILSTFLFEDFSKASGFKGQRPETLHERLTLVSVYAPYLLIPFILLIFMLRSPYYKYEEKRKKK
Chain of Sigma 1 (Q99720 whole entry): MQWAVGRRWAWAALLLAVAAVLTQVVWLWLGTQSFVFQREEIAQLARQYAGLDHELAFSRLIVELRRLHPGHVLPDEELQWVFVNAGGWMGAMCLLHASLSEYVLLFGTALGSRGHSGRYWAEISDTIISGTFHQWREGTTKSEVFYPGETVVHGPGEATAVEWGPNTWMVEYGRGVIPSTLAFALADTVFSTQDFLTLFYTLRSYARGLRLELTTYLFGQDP
T5 sequence (P28335 33-458): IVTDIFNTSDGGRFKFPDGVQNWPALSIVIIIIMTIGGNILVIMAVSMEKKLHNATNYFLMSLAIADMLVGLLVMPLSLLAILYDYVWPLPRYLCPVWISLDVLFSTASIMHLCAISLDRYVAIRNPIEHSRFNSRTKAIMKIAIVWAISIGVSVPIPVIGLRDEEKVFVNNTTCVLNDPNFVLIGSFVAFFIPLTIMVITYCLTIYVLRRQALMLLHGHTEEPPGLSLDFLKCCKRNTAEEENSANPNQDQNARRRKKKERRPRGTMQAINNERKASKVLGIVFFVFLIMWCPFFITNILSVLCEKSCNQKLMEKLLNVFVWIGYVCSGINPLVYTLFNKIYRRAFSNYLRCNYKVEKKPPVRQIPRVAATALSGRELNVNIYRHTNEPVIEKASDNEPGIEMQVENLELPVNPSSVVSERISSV
Chain of 5-HT5A (P47898 whole entry): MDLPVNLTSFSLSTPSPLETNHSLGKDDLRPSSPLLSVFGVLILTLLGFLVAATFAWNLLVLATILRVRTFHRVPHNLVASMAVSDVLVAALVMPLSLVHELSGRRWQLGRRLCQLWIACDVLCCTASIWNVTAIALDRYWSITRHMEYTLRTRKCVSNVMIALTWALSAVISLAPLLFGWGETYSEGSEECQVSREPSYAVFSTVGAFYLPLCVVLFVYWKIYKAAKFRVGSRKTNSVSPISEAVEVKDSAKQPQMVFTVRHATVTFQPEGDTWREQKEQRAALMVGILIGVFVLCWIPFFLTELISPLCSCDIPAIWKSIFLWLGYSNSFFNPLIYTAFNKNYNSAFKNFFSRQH
T2 sequence (P34969 other isoform, or with tags, fused parts or gaps): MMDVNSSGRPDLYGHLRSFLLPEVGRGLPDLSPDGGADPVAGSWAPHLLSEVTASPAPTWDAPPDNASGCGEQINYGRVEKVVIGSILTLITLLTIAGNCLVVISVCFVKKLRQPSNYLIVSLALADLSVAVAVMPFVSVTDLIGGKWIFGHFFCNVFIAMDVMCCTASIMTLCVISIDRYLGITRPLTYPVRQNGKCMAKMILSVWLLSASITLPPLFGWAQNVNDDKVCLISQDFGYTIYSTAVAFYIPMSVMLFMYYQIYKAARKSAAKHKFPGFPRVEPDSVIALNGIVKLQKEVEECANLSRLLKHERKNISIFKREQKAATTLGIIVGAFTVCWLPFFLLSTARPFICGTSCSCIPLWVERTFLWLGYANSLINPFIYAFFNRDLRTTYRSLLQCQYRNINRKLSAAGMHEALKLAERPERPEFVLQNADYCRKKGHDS
Chain of 5-HT1B (P28222 whole entry): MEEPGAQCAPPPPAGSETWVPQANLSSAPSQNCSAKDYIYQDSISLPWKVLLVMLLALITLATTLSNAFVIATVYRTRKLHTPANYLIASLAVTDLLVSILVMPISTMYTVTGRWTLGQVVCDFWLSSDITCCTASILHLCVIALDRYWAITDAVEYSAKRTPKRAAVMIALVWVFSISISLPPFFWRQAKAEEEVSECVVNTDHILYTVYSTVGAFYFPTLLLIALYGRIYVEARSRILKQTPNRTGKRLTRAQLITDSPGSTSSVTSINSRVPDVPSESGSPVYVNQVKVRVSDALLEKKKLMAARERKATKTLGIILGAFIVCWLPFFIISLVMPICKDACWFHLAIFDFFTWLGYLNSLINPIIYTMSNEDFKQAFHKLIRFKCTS
Chain of 5-HT1E (P28566 whole entry): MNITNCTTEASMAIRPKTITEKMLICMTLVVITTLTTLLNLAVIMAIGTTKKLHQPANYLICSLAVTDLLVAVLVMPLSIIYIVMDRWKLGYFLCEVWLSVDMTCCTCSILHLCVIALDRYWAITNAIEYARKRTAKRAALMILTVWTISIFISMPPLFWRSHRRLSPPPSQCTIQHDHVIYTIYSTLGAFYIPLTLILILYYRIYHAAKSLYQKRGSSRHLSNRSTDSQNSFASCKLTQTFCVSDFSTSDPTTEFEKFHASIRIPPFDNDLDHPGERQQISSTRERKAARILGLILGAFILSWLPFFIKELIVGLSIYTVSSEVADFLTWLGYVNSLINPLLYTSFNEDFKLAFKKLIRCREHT
T3 sequence (P28223 whole entry): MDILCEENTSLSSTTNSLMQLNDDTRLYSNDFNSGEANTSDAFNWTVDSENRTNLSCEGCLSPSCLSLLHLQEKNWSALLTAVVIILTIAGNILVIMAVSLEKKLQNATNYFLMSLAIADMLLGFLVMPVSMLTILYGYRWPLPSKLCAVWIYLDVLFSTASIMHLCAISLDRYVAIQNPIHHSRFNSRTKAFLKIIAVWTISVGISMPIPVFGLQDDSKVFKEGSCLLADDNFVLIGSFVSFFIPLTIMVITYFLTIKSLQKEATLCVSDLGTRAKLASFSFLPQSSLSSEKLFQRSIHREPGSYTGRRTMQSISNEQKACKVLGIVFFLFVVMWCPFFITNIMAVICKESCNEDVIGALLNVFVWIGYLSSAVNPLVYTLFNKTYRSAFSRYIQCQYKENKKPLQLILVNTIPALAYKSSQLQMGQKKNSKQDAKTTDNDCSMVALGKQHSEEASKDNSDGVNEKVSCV
T4 sequence (P41595 whole entry): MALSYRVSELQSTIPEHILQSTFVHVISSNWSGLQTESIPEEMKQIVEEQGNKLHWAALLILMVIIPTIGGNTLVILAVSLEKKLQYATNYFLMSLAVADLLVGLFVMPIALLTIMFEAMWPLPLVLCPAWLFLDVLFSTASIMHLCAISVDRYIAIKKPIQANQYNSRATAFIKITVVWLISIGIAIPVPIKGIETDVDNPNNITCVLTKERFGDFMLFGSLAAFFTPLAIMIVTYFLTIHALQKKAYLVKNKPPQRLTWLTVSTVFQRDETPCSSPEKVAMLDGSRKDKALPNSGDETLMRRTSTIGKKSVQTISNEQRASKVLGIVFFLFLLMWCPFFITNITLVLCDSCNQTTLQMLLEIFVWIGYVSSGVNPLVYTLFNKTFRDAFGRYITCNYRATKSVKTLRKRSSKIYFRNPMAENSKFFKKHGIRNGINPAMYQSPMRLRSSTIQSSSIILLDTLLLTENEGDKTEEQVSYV
T1 sequence (P50406 whole entry): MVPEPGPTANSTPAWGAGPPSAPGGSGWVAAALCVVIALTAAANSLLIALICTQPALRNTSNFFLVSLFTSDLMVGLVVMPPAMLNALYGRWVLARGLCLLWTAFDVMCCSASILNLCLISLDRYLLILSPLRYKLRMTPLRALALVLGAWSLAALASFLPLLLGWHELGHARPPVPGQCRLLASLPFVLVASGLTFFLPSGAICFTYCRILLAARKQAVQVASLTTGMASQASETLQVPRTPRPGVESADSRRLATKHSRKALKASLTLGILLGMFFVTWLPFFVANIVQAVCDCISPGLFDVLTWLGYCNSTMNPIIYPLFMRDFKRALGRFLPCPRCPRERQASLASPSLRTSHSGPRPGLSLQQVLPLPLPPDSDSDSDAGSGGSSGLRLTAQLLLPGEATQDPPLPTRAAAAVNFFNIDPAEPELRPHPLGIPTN
Chain of 5-HT1A (P08908 whole entry): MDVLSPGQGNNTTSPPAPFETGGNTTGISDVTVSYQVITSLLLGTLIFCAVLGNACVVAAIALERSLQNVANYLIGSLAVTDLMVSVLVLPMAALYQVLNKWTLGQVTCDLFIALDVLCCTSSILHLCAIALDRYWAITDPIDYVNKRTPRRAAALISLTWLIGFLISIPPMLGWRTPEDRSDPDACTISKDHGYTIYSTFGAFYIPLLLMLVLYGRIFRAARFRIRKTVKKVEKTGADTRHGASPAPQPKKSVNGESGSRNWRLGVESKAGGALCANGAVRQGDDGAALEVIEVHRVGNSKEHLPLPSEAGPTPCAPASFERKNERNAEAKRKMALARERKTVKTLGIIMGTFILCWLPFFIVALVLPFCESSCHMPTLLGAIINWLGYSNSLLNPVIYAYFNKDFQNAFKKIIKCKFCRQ
Chain of 5-HT1D (P28221 whole entry): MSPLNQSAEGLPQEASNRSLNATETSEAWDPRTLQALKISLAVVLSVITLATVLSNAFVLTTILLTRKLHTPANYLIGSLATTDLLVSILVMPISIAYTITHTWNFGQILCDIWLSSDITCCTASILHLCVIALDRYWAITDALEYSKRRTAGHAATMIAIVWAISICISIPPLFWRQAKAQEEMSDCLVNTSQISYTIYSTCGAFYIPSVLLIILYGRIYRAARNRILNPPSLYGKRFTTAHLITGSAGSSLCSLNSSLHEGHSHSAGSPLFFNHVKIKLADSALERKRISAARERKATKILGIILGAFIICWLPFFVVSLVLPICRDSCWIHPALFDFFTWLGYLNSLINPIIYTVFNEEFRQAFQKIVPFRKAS

SMILES: Br.CN(C)CCc1c(Br)[nH]c2ccccc12 [2-Br-4-AcO-DMT*HBr, 2-(2-bromo-1H-indol-3-yl)-N,N-dimethylethan-1-amine hydrobromide salt]
- metabolism via deacetylation into 2-Br-4-OH-DMT [1]: rapidly metabolized via deacetylation into an active metabolite

SMILES: CN(C)CCc1c[nH]c2ccccc12 [N,N-dimethyltryptamine, reference compound]
- Ki (5-HT6 [2]): 134 nM
- Ki (5-HT7A [3]): 15.2 nM
- hypothermia [4]: dose-dependent hypothermia
- Ki (5-HT1D): 42.2 nM
- Ki (Sigma 1): 230 nM
- Ki (5-HT5A): 155 nM
- Cmax (in vivo): 60 ng/mL
- tmax (maximal effects) [5]: 10 min
- Ki (5-HT1B): 557 nM
- Ki (Sigma 2): 777 nM
- Ki (5-HT1E): 104 nM

SMILES: CN(C)CCc1c(Br)[nH]c2ccccc12 [drawing 2]
- Ki (5-HT1A): > 10000 nM
- Ki (5-HT1D; [18]): > 10000 nM
- Ki (5-HT2A [6]): 417 nM
- Ki (5-HT1B; [19]): > 10000 nM
- Ki (5-HT1E; [20]): > 10000 nM
- Ki (5-HT2B [7]): 222 nM

SMILES: CN(C)CCc1c(Cl)[nH]c2ccccc12 [drawing 3]
- Ki (5-HT1D; [18]): > 10000 nM
- Ki (5-HT1B; [19]): > 10000 nM
- Ki (5-HT1E; [20]): 3910 nM
- Ki (5-HT2B [7]): 191 nM

SMILES: CC(=O)Oc1cccc2[nH]cc(CCN(C)C)c12 [drawing 4]
- Ki (5-HT2B [7]): 11.6 nM

SMILES: CC(=O)Oc1cccc2[nH]c(Br)c(CCN(C)C)c12 [drawing 5]
- Ki (5-HT1D; [18]): > 10000 nM
- Ki (5-HT1B; [19]): > 10000 nM
- Ki (5-HT1E; [20]): > 10000 nM
- Ki (5-HT2B [7]): 67.7 nM

SMILES: CC(C)N(CCc1c(Br)[nH]c2ccccc12)C(C)C [drawing 6]
- Ki (5-HT1D; [18]): 1070 nM
- Ki (5-HT1B; [19]): > 10000 nM
- Ki (5-HT1E; [20]): > 10000 nM
- Ki (5-HT2B [7]): 45.2 nM

SMILES: CN(C)CCc1c[nH]c2cccc(NS(C)(=O)=O)c12 [drawing 7]
- Ki (5-HT1A): 2900 nM
- Ki (5-HT2A [6]): > 10000 nM
- Ki (5-HT2B [7]): 1900 nM

SMILES: CC(=O)Nc1cccc2[nH]cc(CCN(C)C)c12 [drawing 8]
- Ki (5-HT1A): 570 nM
- Ki (5-HT2A [6]): 3400 nM
- Ki (5-HT2B [7]): 700 nM

SMILES: CN(C)CCc1c(Br)[nH]c2ccccc12 [drawing 9]
- Ki (5-HT7A [3]; radioligand binding): 137 nM
- Ki (Sigma 1; [21]): 239 nM
- Ki (5-HT5A; [22]): 1520 nM
- Ki (Sigma 2; [23]): 2460 nM

SMILES: CN(C)CCc1c(Cl)[nH]c2ccccc12 [drawing 10]
- Ki (5-HT6 [2]; radioligand binding): 62 nM
- Ki (5-HT7A [3]; radioligand binding): 178 nM
- Ki (Sigma 1; [21]): 638 nM
- Ki (5-HT5A; [22]): 3000 nM
- Ki (5-HT2C [8]): 120 nM
- Ki (Sigma 2; [23]): > 10000 nM

SMILES: CC(=O)Oc1cccc2[nH]cc(CCN(C)C)c12 [drawing 11]
- Ki (5-HT7A [3]; radioligand binding): 59.6 nM
- Ki (Sigma 1; [21]): > 10000 nM
- Ki (Sigma 2; [23]): > 10000 nM

SMILES: CC(=O)Oc1cccc2[nH]c(Br)c(CCN(C)C)c12 [drawing 12]
- Ki (5-HT6 [2]; radioligand binding): 70.7 nM
- Ki (5-HT7A [3]; radioligand binding): 396 nM
- Ki (Sigma 1; [21]): > 10000 nM
- Ki (5-HT5A; [22]): 894 nM
- Ki (5-HT2C [8]): 1220 nM
- Ki (Sigma 2; [23]): > 10000 nM

SMILES: CC(C)N(CCc1c(Br)[nH]c2ccccc12)C(C)C [drawing 13]
- Ki (5-HT6 [2]; radioligand binding): 407 nM
- Ki (5-HT7A [3]; radioligand binding): 4930 nM
- Ki (Sigma 1; [21]): 257 nM
- Ki (5-HT5A; [22]): > 10000 nM
- Ki (5-HT2C [8]): > 10000 nM
- Ki (Sigma 2; [23]): 483 nM

SMILES: CN(C)CCc1c[nH]c2cccc(NS(C)(=O)=O)c12 [drawing 14]
- Ki (5-HT6 [2]; radioligand binding): > 10000 nM
- Ki (5-HT7A [3]; radioligand binding): 930 nM
- Ki (Sigma 1; [21]): > 10000 nM
- Ki (5-HT2C [8]): > 10000 nM
- Ki (Sigma 2; [23]): > 10000 nM

SMILES: CC(=O)Nc1cccc2[nH]cc(CCN(C)C)c12 [drawing 15]
- Ki (5-HT6 [2]; radioligand binding): > 10000 nM
- Ki (5-HT7A [3]; radioligand binding): 290 nM
- Ki (Sigma 1; [21]): > 10000 nM
- Ki (5-HT2C [8]): 1000 nM
- Ki (Sigma 2; [23]): > 10000 nM

SMILES: CN(C)CCc1c(Br)[nH]c2ccccc12 [drawing 16]
- EC50 (5-HT2A [9]): > 10000 nM
- EC50 (5-HT2B [10]): 799 nM
- EC50 (5-HT7A [11]): 225 nM
- EC50 (5-HT6 [12]): 7 nM

SMILES: CN(C)CCc1c(Cl)[nH]c2ccccc12 [drawing 17]
- EC50 (5-HT2A [9]): 202 nM
- EC50 (5-HT2C [13]): 4480 nM
- EC50 (5-HT7A [11]): 630 nM
- EC50 (5-HT6 [12]): 9 nM

SMILES: CC(=O)Oc1cccc2[nH]c(Br)c(CCN(C)C)c12 [drawing 18]
- EC50 (5-HT2C [13]): 864 nM
- EC50 (5-HT7A [11]): 917 nM
- EC50 (5-HT6 [12]): 8 nM

SMILES: CC(C)N(CCc1c(Br)[nH]c2ccccc12)C(C)C [drawing 19]
- EC50 (5-HT2A [9]): 2130 nM
- EC50 (5-HT2C [13]): > 10000 nM
- EC50 (5-HT2B [10]): 18 nM
- EC50 (5-HT7A [11]): 5870 nM
- EC50 (5-HT6 [12]): 186 nM

SMILES: CN(C)CCc1c(Br)[nH]c2ccccc12 [drawing 20]
- Head Twitch Response Results (mice [14]): No Head Twitch up to 50 mg/kg

SMILES: CN(C)CCc1c(Cl)[nH]c2ccccc12 [drawing 21]
- Head Twitch Response Results (mice [14]): No Head Twitch up to 100 mg/kg

SMILES: CC(=O)Oc1cccc2[nH]cc(CCN(C)C)c12 [drawing 22, reference compound]
- Head Twitch Response Results (mice [14]): Positive Control causes head twitch at 20 mg/kg

SMILES: CC(=O)Oc1cccc2[nH]c(Br)c(CCN(C)C)c12 [drawing 23]
- Head Twitch Response Results (mice [14]): No Head Twitch up to 50 mg/kg

SMILES: CC(C)N(CCc1c(Br)[nH]c2ccccc12)C(C)C [drawing 24]
- Head Twitch Response Results (mice [14]): No Head Twitch up to 25 mg/kg

SMILES: CN(C)CCc1c[nH]c2cccc(NS(C)(=O)=O)c12 [drawing 25]
- Head Twitch Response Results (mice [14]): No Head Twitch up to 25 mg/kg

SMILES: CC(=O)Nc1cccc2[nH]cc(CCN(C)C)c12 [drawing 26]
- Head Twitch Response Results (mice [14]): No Head Twitch up to 50 mg/kg

SMILES: CN(C)CCc1c(Br)[nH]c2ccccc12 [drawing 27]
- minimal effective dose (mice [15]): 1 to 10 mg/kg

SMILES: CN(C)CCc1c(Cl)[nH]c2ccccc12 [drawing 28]
- minimal effective dose (mice [15]): 25 mg/kg

SMILES: CC(=O)Oc1cccc2[nH]c(Br)c(CCN(C)C)c12 [drawing 29]
- minimal effective dose (mice [15]): 5 mg/kg

SMILES: CC(C)N(CCc1c(Br)[nH]c2ccccc12)C(C)C [drawing 30]
- minimal effective dose (mice [15]): 10 mg/kg

SMILES: CC(=O)Oc1cccc2[nH]c(Br)c(CCN(C)C)c12 [drawing 31]
- Elevated Plus Maze, effective dose range (mice [16]): 5 to 10 mg/kg

SMILES: CC(C)N(CCc1c(Br)[nH]c2ccccc12)C(C)C [drawing 32]
- Elevated Plus Maze, effective dose range (mice [16]): 25 mg/kg

SMILES: CN(C)CCc1c[nH]c2cccc(NS(C)(=O)=O)c12 [drawing 33]
- Elevated Plus Maze, effective dose range (mice [16]): 25 mg/kg

SMILES: CN(C)CCc1c(Br)[nH]c2ccccc12 [drawing 34]
- Fear Extinction and Conditioning, effective dose range (mice [17]): 1 to 10 mg/kg

SMILES: CC(=O)Oc1cccc2[nH]c(Br)c(CCN(C)C)c12 [drawing 35]
- Fear Extinction and Conditioning, effective dose range (mice [17]): 5 to 25 mg/kg

SMILES: CC(C)N(CCc1c(Br)[nH]c2ccccc12)C(C)C [drawing 36]
- Fear Extinction and Conditioning, effective dose range (mice [17]): 1 to 10 mg/kg
